Laboratory results as given in DBAASP.
Converted amounts (≈) assume the structure as drawn. Blank lines part the entries; values can stand above or below the compound they belong to.

How the values were obtained:
Assay in all cases: ≥ marks a high value that may be exact or a test limit, other limits are often not marked, values filed in µg/mL are converted to µM
[1] = system: Staphylococcus aureus ATCC 25923
[2] = system: Escherichia coli
[3] = system: Enterobacter cloacae
[4] = system: Escherichia coli ML-35p
[5] = system: Escherichia coli ATCC 25922
[6] = system: Pseudomonas aeruginosa
[7] = system: Pseudomonas aeruginosa ATCC 27853
[8] = system: Pseudomonas aeruginosa PAO1
[9] = system: Klebsiella aerogenes
[10] = system: Staphylococcus aureus
[11] = system: Escherichia coli CPCC 100521
[12] = system: Candida albicans CPCC 400416
[13] = system: Staphylococcus aureus CPCC 100520
[14] = system: Escherichia coli KCTC 1682
[15] = system: Salmonella typhimurium CCARM 8007
[16] = system: Staphylococcus aureus CCARM 3089
[17] = system: Acinetobacter baumannii CCARM 12036
[18] = system: Staphylococcus aureus KCTC 1621
[19] = system: Salmonella typhimurium CCARM 8003
[20] = system: Acinetobacter baumannii KCTC 2508
[21] = system: Staphylococcus epidermidis KCTC 1917
[22] = system: Pseudomonas aeruginosa CCARM 2095
[23] = system: Pseudomonas aeruginosa CCARM 2002
[24] = system: Escherichia coli CCARM 1229
[25] = system: Escherichia coli CCARM 1238
[26] = system: Bacillus subtilis KCTC 3028
[27] = system: Staphylococcus aureus CCARM 3108
[28] = system: Acinetobacter baumannii CCARM 12035
[29] = system: Staphylococcus aureus CCARM 3126
[30] = system: Salmonella typhimurium KCTC 1926
[31] = system: Pseudomonas aeruginosa KCTC 1637
[32] = system: Staphylococcus aureus NCTC 8530
[33] = system: Staphylococcus aureus ATCC 33592
[34] = system: Staphylococcus aureus CGMCC 1.363
[35] = system: Pseudomonas fluorescens CGMCC 1.0032
[36] = system: Aeromonas sobria
[37] = system: Aeromonas hydrophila CGMCC 1.0927
[38] = system: Candida albicans CGMCC 2.2411
[39] = system: Vibrio alginolyticus CGMCC 1.1833
[40] = system: Micrococcus luteus CGMCC 1.634
[41] = system: Shigella flexneri CGMCC 1.1868
[42] = system: Corynebacterium glutamicum CGMCC 1.1886
[43] = system: Vibrio fluvialis CGMCC 1.1609
[44] = system: Escherichia coli MC1061
[45] = system: Vibrio harveyi CGMCC 1.1593
[46] = system: Bacillus subtilis CGMCC 1.108
[47] = system: Staphylococcus epidermidis CGMCC 1.2429
[48] = system: Micrococcus luteus CGMCC 1.0634
[49] = system: Edwardsiella tarda
[50] = system: Vibrio parahaemolyticus CGMCC 1.1615

MIC [1]: 21.4 µM (≈ 42 µg/mL)
MIC [2]: 2.04 µM (≈ 4 µg/mL)
MIC [3]: 10.7 µM (≈ 21 µg/mL)
MIC [4]: 2.55 µM (≈ 5 µg/mL)
MIC [5]: 1.53 µM (≈ 3 µg/mL)
MIC [6]: 6.62 µM (≈ 13 µg/mL)
MIC [7]: 3.57 µM (≈ 7 µg/mL)
MIC [8]: 6.62 µM (≈ 13 µg/mL)
MIC [9]: 13.8 µM (≈ 27 µg/mL)
MIC [10]: 5.1 µM (≈ 10 µg/mL)
SMILES: CC[C@H](C)[C@H](NC(=O)[C@@H](NC(=O)[C@H](CCCN=C(N)N)NC(=O)[C@@H]1CCCN1C(=O)[C@H](CCCCN)NC(=O)[C@H](CCCCN)NC(=O)[C@H](Cc1ccccc1)NC(=O)[C@H](Cc1ccccc1)NC(=O)[C@H](CCCCN)NC(=O)[C@H](CCCCN)NC(=O)[C@H](C)N)C(C)C)C(=O)NCC(=O)N[C@H](C(=O)N[C@@H](CO)C(=O)N[C@H](C(=O)N1CCC[C@H]1C(=O)N[C@@H](Cc1ccccc1)C(=O)O)[C@@H](C)CC)C(C)C [AKKFFKKPRVIGVSIPF]

MIC [32]: 3 µM (≈ 4.54 µg/mL)
MIC [33]: 3 µM (≈ 4.54 µg/mL)
SMILES: CC[C@H](C)[C@H](NC(=O)[C@H](CCCCN)NC(=O)[C@H](CCCN=C(N)N)NC(=O)[C@@H](N)CCCCN)C(=O)N[C@@H](Cc1ccccc1)C(=O)N[C@@H](CC(C)C)C(=O)N[C@@H](CCCN=C(N)N)C(=O)N[C@H](C(=O)N[C@@H](CCCCN)C(=O)N[C@H](C(=O)N[C@@H](CC(C)C)C(=O)N[C@H](C(=O)O)C(C)C)[C@@H](C)CC)[C@@H](C)O [KRKIFLRTKILV]

MIC [34]: 17 µM (≈ 18.9 µg/mL)
MIC [35]: 8.49 µM (≈ 9.46 µg/mL)
MIC [36]: ≥ 48 µM
MIC [37]: ≥ 48 µM
MIC [38]: ≥ 48 µM
MIC [39]: ≥ 48 µM
MIC [40]: 8.49 µM (≈ 9.46 µg/mL)
MIC [41]: ≥ 48 µM
MIC [42]: 17 µM (≈ 18.9 µg/mL)
MIC [43]: ≥ 48 µM
MIC [44]: ≥ 48 µM
MIC [45]: ≥ 48 µM
MIC [46]: ≥ 48 µM
MIC [47]: ≥ 48 µM
MIC [48]: ≥ 48 µM
MIC [49]: ≥ 48 µM
SMILES: CC[C@H](C)[C@H](NC(=O)[C@H](CCCN=C(N)N)NC(=O)CNC(=O)[C@@H](N)C(C)C)C(=O)N[C@@H](Cc1cnc[nH]1)C(=O)N[C@@H](CCCN=C(N)N)C(=O)N[C@@H](Cc1cnc[nH]1)C(=O)N[C@@H](CC(C)C)C(=O)N[C@@H](CCCCN)C(=O)O [VGRIHRHLK]
MIC [50]: ≥ 48 µM

Continued, compound first:

SMILES: CC[C@H](C)[C@H](NC(=O)CN)C(=O)NCC(=O)NCC(=O)N[C@@H](C)C(=O)N[C@@H](CC(C)C)C(=O)N[C@@H](CC(C)C)C(=O)N[C@@H](CO)C(=O)N[C@@H](C)C(=O)NCC(=O)N[C@@H](CCCCN)C(=O)N[C@@H](CO)C(=O)N[C@@H](C)C(=O)N[C@@H](CC(C)C)C(=O)N[C@@H](CCCCN)C(=O)NCC(=O)N[C@@H](CC(C)C)C(=O)N[C@@H](C)C(=O)N[C@@H](CCCCN)C(=O)NCC(=O)N[C@@H](CC(C)C)C(=O)N[C@@H](C)C(=O)N[C@@H](CCC(=O)O)C(=O)N[C@@H](Cc1cnc[nH]1)C(=O)N[C@@H](Cc1ccccc1)C(=O)N[C@@H](C)C(=O)N[C@@H](CC(N)=O)C(N)=O [GIGGALLSAGKSALKGLAKGLAEHFAN]
MIC [11]: 6.3 µM (≈ 16.1 µg/mL)
MIC [12]: 12.5 µM (≈ 31.9 µg/mL)
MIC [13]: 6.3 µM (≈ 16.1 µg/mL)

SMILES: CC[C@H](C)[C@H](NC(=O)[C@H](C)NC(=O)[C@H](CCCCN)NC(=O)[C@H](Cc1cnc[nH]1)NC(=O)[C@@H](NC(=O)[C@@H]1CCCN1C(=O)[C@H](CCC(N)=O)NC(=O)[C@H](Cc1ccccc1)NC(=O)[C@@H](NC(=O)[C@H](CCCCN)NC(=O)[C@H](CCCCN)NC(=O)[C@H](CC(C)C)NC(=O)[C@H](C)NC(=O)[C@H](CC(N)=O)NC(=O)[C@H](CC(C)C)NC(=O)CN)C(C)C)[C@@H](C)CC)C(=O)N[C@@H](CCCCN)C(=O)N[C@@H](CCCCN)C(=O)N[C@H](C(=O)N[C@@H](CC(N)=O)C(=O)N[C@@H](CC(N)=O)C(=O)N[C@@H](Cc1cnc[nH]1)C(=O)N[C@H](C(=O)N[C@@H](CCC(N)=O)C(=O)O)C(C)C)[C@@H](C)CC [GLNALKKVFQPIHKAIKKINNHVQ]
MIC [14]: 4 µM (≈ 11 µg/mL)
MIC [15]: 16 µM (≈ 43.8 µg/mL)
MIC [16]: ≥ 32 µM
MIC [17]: 8 µM (≈ 21.9 µg/mL)
MIC [18]: ≥ 32 µM
MIC [19]: 16 µM (≈ 43.8 µg/mL)
MIC [20]: 8 µM (≈ 21.9 µg/mL)
MIC [21]: ≥ 64 µM
MIC [22]: 16 µM (≈ 43.8 µg/mL)
MIC [23]: 16 µM (≈ 43.8 µg/mL)
MIC [24]: 8 µM (≈ 21.9 µg/mL)
MIC [25]: 8 µM (≈ 21.9 µg/mL)
MIC [26]: ≥ 32 µM
MIC [27]: ≥ 32 µM
MIC [28]: 16 µM (≈ 43.8 µg/mL)
MIC [29]: ≥ 64 µM
MIC [30]: 8 µM (≈ 21.9 µg/mL)
MIC [31]: 8 µM (≈ 21.9 µg/mL)
